55 molecules from US5840732A, “Imidazopyridine or imidazopyrimidine compounds, their production and use” (Takeda Chemical Industries Ltd., priority 1994, dated 1998) can be followed below.

Assay [1] concerns ELAM-1 expression in human umbilical cord vascular endothelial cells. As to the kind of experiment: Inhibitory activity of adhesion molecule expression (ELAM-1, cell-ELISA). The format is cell-based. As to conditions: TNFα 1 ng/ml, 37° C., 3 hours. Here is the method: (§1) Inhibitory activity of adhesion molecule expression
(§2) Test method: To human umbilical cord vascular endothelial cells (purchased from Kurabo), cultured on gelatin-coated plates, compounds at various concentrations (test compounds) were added, followed by incubation at 37° C. for 15 minutes. Human tumor necrosis factor (TNFα, purchased from Genzyme) was then added to a final concentration of 1 ng/ml, followed by incubation at 37° C. for 3 hours for ELAM-1 expression or for 5 hours for ICAM-1 expression. After the reaction, cells were fixed with glutaraldehyde; the amounts of ELAM-1 and ICAM-1 expressed were determined by cell-ELISA. Anti-ELAM-1 antibody BBA-2 and an anti-ICAM-1 antibody BBA-4 were used as the first antibodies for the defection of ELAM-1 and ICAM-1, respectively, and horse radish peroxidase-labeled rabbit anti-mouse IgG antibody was used as the second antibody to determine the amount of adhesion molecules expressed on cells observed. The compound concentration at which 50% expression was expressed as the 50% inhibitory concentration (IC50), with the amount of expression in the absence of compounds as 100 and the amount of expression in the absence of TNFα as 0.

The test system of assay [2] is ICAM-1 expression in human umbilical cord vascular endothelial cells. The assay can be described thus: Inhibitory activity of adhesion molecule expression (ICAM-1, cell-ELISA). In kind it is cell-based. As to conditions: TNFα 1 ng/ml, 37° C., 5 hours. Here is the method: as §1, §2

Consider `CCCC=C1SC(=O)N(CCSc2cccc3nccn23)C1=O` [compound 5], for which the concentration for half-maximal inhibition (IC50) (commonly the concentration that inhibits the measured activity by half) in assay [1] is 5.3 µM; in assay [2] it was 3.5 µM.

For `CCCCCCCCCC=C1SC(=O)N(CCCCSc2cccc3nccn23)C1=O` [compound 6], the IC50 stood at 7.3 µM in assay [1] and 6.3 µM in assay [2].

Take `CCCC=C1SC(=O)N(CCCCc2cccc3nccn23)C1=O` [compound 7]: the concentration for half-maximal inhibition (IC50) in assay [1] was found to be 2.3 µM; in assay [2], 3.1 µM.

Consider `CCCC=C1SC(=O)N(CCCCOc2cccc3nccn23)C1=O` [compound 8], for which the IC50 in assay [1] came out at 3.8 µM; in assay [2], 4.4 µM.

Take `CCCC=C1OC(=O)N(CCCCSc2cccc3nccn23)C1=O` [compound 9]: the IC50 in assay [1] was determined as 2.6 µM; in assay [2], 2.4 µM.

On to `CCC=C1SC(=O)N(CCCCSc2cccc3nccn23)C1=O` [compound 10], for which the IC50 in assay [1] was found to be 2.3 µM; in assay [2] it was 2.4 µM.

Turning to `CC=C1SC(=O)N(CCCCSc2cccc3nccn23)C1=O` [compound 11], the figures for the IC50 in assay [1] and in assay [2] were 1.9 µM and 2.9 µM, respectively.

Take `CCCC=C1SC(=O)N(CCCc2cccc3nccn23)C1=O` [compound 12]: the IC50 in assay [1] was 4.4 µM; in assay [2], 4.9 µM.

Take `CCCC=C1SC(=O)N(CSc2cccc3nccn23)C1=O` [compound 13]: the values for the IC50 in assay [1] and in assay [2] were 5.1 µM and 6.3 µM, respectively.

Regarding `CCCC=C1SC(=O)N(CCc2cccc3nccn23)C1=O` [compound 14], the IC50 in assay [1] amounted to 5.1 µM; in assay [2], 6.1 µM.

With `CCCC=C1SC(=O)N(Cc2cccc3nccn23)C1=O` [compound 15], the IC50 in assay [1] amounted to 6.2 µM; in assay [2] it was 7 µM.

Consider `O=C1SC(=CCCc2ccccc2)C(=O)N1CCCCSc1cccc2nccn12` [compound 19], for which the values for the IC50 in assay [1] and in assay [2] were 3 µM and 3.9 µM, respectively.

For `O=C1SC(=CCCCc2ccccc2)C(=O)N1CCCCSc1cccc2nccn12` [compound 21], the results for the IC50 in assay [1] and in assay [2] were 3.3 µM and 4 µM, respectively.

With `CCCC=C1SC(=O)N(CCCCSc2cccc3nc(C)cn23)C1=O` [compound 23], the results for the IC50 in assay [1] and in assay [2] were 3.6 µM and 7 µM, respectively.

Turning to `CCCC=C1SC(=O)N(CCCCSc2nccc3nccn23)C1=O` [compound 25], the IC50 was 4 µM in assay [1] and 8 µM in assay [2].

As for `CCCC=C1SC(=O)N(CCCCOc2cccn3cc(-c4ccccc4)nc23)C1=O` [compound 26], the 50% inhibitory concentration (IC50) in assay [1] stood at 4.1 µM; in assay [2], 3.7 µM.

For the molecule `CCCC=C1SC(=O)N(CCCCOc2cccn3cc(C(=O)OCC)nc23)C1=O` [compound 27], the results for the IC50 in assay [1] and in assay [2] were 5 µM and 6.5 µM, respectively.

On to `O=C1OC(=CCCc2ccccc2)C(=O)N1CCCCOc1cccn2ccnc12` [compound 32], for which the IC50 in assay [1] was 3.2 µM; in assay [2], 5.7 µM.

`O=C1OC(=CCCc2ccccc2)C(=O)N1CCCCSc1cccc2nccn12` [compound 33]: the IC50 in assay [1] turned out to be 2.8 µM; in assay [2], 6.3 µM.

Consider `CCCC=C1SC(=O)N(CCCCOc2cccn3c(C(=O)C(F)(F)F)cnc23)C1=O` [compound 34], for which the IC50 in assay [1] was 5.2 µM; in assay [2] it was 6.1 µM.

In the case of `CCCC=C1SC(=O)N(CCCCSc2cccc3ncc(C(=O)C(F)(F)F)n23)C1=O` [compound 35], the IC50 in assay [1] was found to be 3.4 µM; in assay [2], 4.6 µM.

`O=c1c(-c2ccccc2)c2n(c(=O)n1CCCCSc1cccc3nccn13)CCS2(=O)=O` [compound 36]: the concentration for half-maximal inhibition (IC50) in assay [1] came out at 2.1 µM; in assay [2], 3.7 µM.

As to `O=C1SC(=CCCc2cccnc2)C(=O)N1CCCCSc1cccc2nccn12` [compound 38], the half-inhibitory concentration (IC50) was 3.4 µM in assay [1] and 3.7 µM in assay [2].

In the case of `O=C1SC(=CCCc2cccnc2)C(=O)N1CCCCOc1cccn2ccnc12` [compound 39], the results for the IC50 in assay [1] and in assay [2] were 3.3 µM and 2.4 µM, respectively.

Turning to `Cc1c2n(c(=O)n(CCCCSc3cccc4nccn34)c1=O)CCCS2(=O)=O` [compound 40], the values for the IC50 in assay [1] and in assay [2] were 1.1 µM and 1.8 µM, respectively.

As to `O=c1c(Cc2ccccc2)c2n(c(=O)n1CCCCSc1cccc3nccn13)CCCS2(=O)=O` [compound 41], the IC50 in assay [1] worked out at 0.5 µM; in assay [2], 0.9 µM.

As to `CC(C)c1c2n(c(=O)n(CCCCSc3cccc4nccn34)c1=O)CCCS2(=O)=O` [compound 42], the IC50 stood at 1 µM in assay [1] and 1.5 µM in assay [2].

With `O=c1cc2n(c(=O)n1CCCCSc1cccc3nccn13)CCCS2(=O)=O` [compound 43], the values for the IC50 in assay [1] and in assay [2] were 2.2 µM and 3.5 µM, respectively.

For the molecule `CCCC=C1SC(=O)N(CCCOc2cccn3ccnc23)C1=O` [compound 47], the values for the IC50 in assay [1] and in assay [2] were 3 µM and 4.2 µM, respectively.

For the molecule `CCCC=C1SC(=O)N(CCCCOc2cccn3cc(C)nc23)C1=O` [compound 48], the IC50 in assay [1] stood at 4.6 µM; in assay [2] it was 6.4 µM.

For the molecule `CCCC=C1SC(=O)N(CCCCSc2cccc3ncc(Br)n23)C1=O` [compound 50], the IC50 in assay [1] was found to be 4.7 µM; in assay [2] it was 6.9 µM.

`O=c1c(-c2ccccc2)c2n(c(=O)n1CCCCSc1cccc3nccn13)CCC[S+]2[O-]` (centres unmarked) [compound 51]: the IC50 stood at 2.8 µM in assay [1] and 6.8 µM in assay [2].

Take `O=C(NCCCn1c(=O)c(-c2ccccc2)c2n(c1=O)CCCS2(=O)=O)OCCc1cccc2nccn12` [compound 53]: the IC50 is 6.2 µM in assay [1] and 6.3 µM in assay [2].

Turning to `CCCC=C1SC(=O)N(CCC(C)(C)CCSc2cccc3nccn23)C1=O` [compound 54], the IC50 was 6.1 µM in assay [1] and 5 µM in assay [2].

With `CCCC=C1SC(=O)N(CCC2(CCSc3cccc4nccn34)CCCC2)C1=O` [compound 55], the IC50 in assay [1] turned out to be 7.3 µM; in assay [2] it was 5.5 µM.

Take `CN(C)Cc1cnc2cccc(SCCCCn3c(=O)c(-c4ccccc4)c4n(c3=O)CCCS4(=O)=O)n12` [compound 56]: the IC50 in assay [1] was determined as 3.9 µM; in assay [2], 5.7 µM.

Consider `CCCCCCC=C1SC(=O)N(CCCCSc2cccc3nccn23)C1=O` [compound 57], for which the IC50 is 7.9 µM in assay [1] and 7.1 µM in assay [2].

As for `CCCCCCCC=C1SC(=O)N(CCCCSc2cccc3nccn23)C1=O` [compound 60], the IC50 came to 9.2 µM in assay [1] and 9 µM in assay [2].

`O=C1SC(=CCCCCc2ccccc2)C(=O)N1CCCCSc1cccc2nccn12` [compound 65]: the figures for the IC50 in assay [1] and in assay [2] were 5 µM and 5.3 µM, respectively.

Take `O=C1SC(=CCCc2ccccc2)C(=O)N1CCCCOc1cccn2ccnc12` [compound 67]: the IC50 in assay [1] was 3.4 µM; in assay [2] it was 3.9 µM.

`CCC=C1SC(=O)N(CCCCOc2cccn3ccnc23)C1=O` [compound 68]: the IC50 in assay [1] amounted to 3.2 µM; in assay [2], 5 µM.

As to `CCCCC=C1SC(=O)N(CCCCOc2cccn3ccnc23)C1=O` [compound 69], the IC50 in assay [1] is 4 µM; in assay [2] it was 6.1 µM.

For `CCCCCC=C1SC(=O)N(CCCCOc2cccn3ccnc23)C1=O` [compound 70], the values for the IC50 in assay [1] and in assay [2] were 5.3 µM and 6.9 µM, respectively.

Turning to `CCCCCCCC=C1SC(=O)N(CCCCOc2cccn3ccnc23)C1=O` [compound 71], the IC50 was determined as 4.6 µM in assay [1] and 5.2 µM in assay [2].

With `CCCCCCCCCC=C1SC(=O)N(CCCCOc2cccn3ccnc23)C1=O` [compound 72], the IC50 in assay [1] was 6.4 µM; in assay [2], 5.6 µM.

Turning to `CCCCCC=C1OC(=O)N(CCCCOc2cccn3ccnc23)C1=O` [compound 75], the values for the IC50 in assay [1] and in assay [2] were 3.5 µM and 6.1 µM, respectively.

As to `CCC/C=C1\OC(=O)N(CCCCOc2cccn3c(C(=O)C(F)(F)F)cnc23)C1=O` [compound 76], the IC50 worked out at 6.7 µM in assay [1] and 7.1 µM in assay [2].

Consider `CCC/C=C1/OC(=O)N(CCCCOc2cccn3c(C(=O)C(F)(F)F)cnc23)C1=O` [compound 77], for which the IC50 in assay [1] stood at 6.3 µM; in assay [2], 6 µM.

In the case of `O=C(CCCSc1cccc2nccn12)NCCCn1c(=O)c(-c2ccccc2)c2n(c1=O)CCCS2(=O)=O` [compound 79], the IC50 in assay [1] was 6.1 µM; in assay [2], 5.9 µM.

On to `COc1ccc(CCC=C2SC(=O)N(CCCCSc3cccc4nccn34)C2=O)cc1` [compound 80], for which the values for the IC50 in assay [1] and in assay [2] were 4.6 µM and 4.1 µM, respectively.

Regarding `COc1ccccc1CCC=C1SC(=O)N(CCCCSc2cccc3nccn23)C1=O` [compound 81], the figures for the IC50 in assay [1] and in assay [2] were 6.1 µM and 4.3 µM, respectively.

Turning to `O=C1SC(=CCCc2ccc(F)cc2)C(=O)N1CCCCSc1cccc2nccn12` [compound 82], the figures for the IC50 in assay [1] and in assay [2] were 4.3 µM and 3.6 µM, respectively.

With `O=C1SC(=CCCc2ccccc2F)C(=O)N1CCCCSc1cccc2nccn12` [compound 83], the results for the IC50 in assay [1] and in assay [2] were 3.7 µM and 3.8 µM, respectively.

Turning to `O=C1SC(=CCCc2ccccc2Cl)C(=O)N1CCCCSc1cccc2nccn12` [compound 84], the IC50 worked out at 4.1 µM in assay [1] and 3.6 µM in assay [2].

Take `O=C1SC(=CCCc2ccc(Cl)cc2)C(=O)N1CCCCSc1cccc2nccn12` [compound 85]: the figures for the IC50 in assay [1] and in assay [2] were 4.3 µM and 3.9 µM, respectively.
